Data as given in patent publication US20250288558A1, “THERAPEUTIC FOR SPINAL CORD INJURY TO INDUCE HYPOTHERMIA” (The Trustees of Indiana University, priority 2024, published 2025).
Where “and” joins values, the source holds several entries; their conditions need not be identical. Identical values can stand only once. Counter-ions that a name gives are not always drawn. Like-named read-outs stand apart in the source and are kept apart here.

What was measured:
GFAP = settings: epicenter
Protocol: Immunofluorescent Staining: Immunofluorescent staining was carried out according to our previous reports. In brief, sections on the slides were rinsed in PBS 3 times (5 minutes each) and incubated in blocking buffer (0.1% Triton X-100, 1% bovine serum albumin, and 5% normal serum in PBS) for 1 hour at room temperature. Then, primary antibodies were added to blocking buffer and incubated with sections overnight at 4° C. After 3 washes with PBS (5 minutes each), sections were incubated with the secondary antibody for 1 hour at room temperature and then treated with 4′,6-Diamidino-2-phenylindole (DAPI) for 2 minutes. Finally, sections were washed 3 times with PBS (5 minutes each), dried, and mounted using Fluoromount G (Southern Biotech, Birmingham, AL, USA). Primary antibodies and their final concentrations were as follows: NeuN antibody (1:500, chicken, Abcam, ab134014), SMI31 antibody (1:1000, mouse, Millipore, NE1022), and GFAP antibody (1:1000, mouse, Sigma, G3893).

[1] = test system: none-injury young adult c57 BL/6 mice
Protocol: The effects of different doses of Dex on hypothermia induction in none-injury young adult c57 BL/6 mice was tested. […] Further, we examined the change of Dex induced hypothermia when the routine Avertin (2.5%), a wildly used anesthetic for small animal surgery was applied.

[2] = test system: mice with contusive T9 moderate SCI (IH); settings: Dex 100 μg/kg one hour post-trauma, IH model, ambient 24.5° C.
Protocol: Contusive spinal cord injury: Adult female C57BL/6 mice (8 weeks old, 18-22 g) were purchased from The Jackson Laboratory (Bar Harbor, ME). Depending on different injury model, mice were either randomly divided into three groups: sham, SCI+heating pad, and SCI+Dex for LISA injury model, or were randomly divided into four groups: sham, SCI+heating pad, SCI+Dex, and SCI+Conventional hypothermia for Infinite Horizons (IH) model. […] All animal care, handling, and surgery were performed in accordance with the Guide for the Care and Use of Laboratory Animals (National Research Council) and the Guidelines of the Institutional Animal Care and Use Committee of Indiana University School of Medicine. Spinal cord contusion was made at the thoracic (T9) vertebral level. After avertin anesthesia, animals will be placed on a thermometer-controlled heating pad for the duration of recovery (except Dex and conventional hypothermia treated group). For LISA injury model, C57/6J mice were anesthetized. […] The T9 contusion injury was performed using a LISA impactor, where the injury level was determined using a laser sensor. After injury confirmation, the surgical area is sutured, the animal is hydrated and monitored for post-operative care, including analgesia and bladder expression. […]

[3] = test system: mice with contusive T9 moderate SCI (IH); settings: end of BMS test, IH model
Source text: The scores ranged from 9 to 0 that represent normal movement to complete paralysis, respectively.

mouse with a SCI = test system: mouse with a SCI
Protocol: Referring to FIGS. 5A-5C, to evaluate the coordination of bladder and external urethral sphincter, urodynamic recordings were performed. Bladder cystometrograph (CMG) and external urethral sphincter electromyography (EMG) were co-recorded. The peak intravesical pressure in CMG indicates the contraction of bladder detrusor. The bursting signal in external urethral sphincter EMG is a sign of relaxation of external urethral sphincter. The coordination of bladder and external urethral sphincter was reflected by the synchronization of two signals. […] In chronically injured mice, restoration of reflex external urethral sphincter relaxation correlates with the re-appearance of external urethral sphincter bursting. Therefore, external urethral sphincter bursting is a good indicator of external urethral sphincter functional recovery after SCI in mice.

[4] = test system: mice with contusive T9 moderate SCI (IH); settings: 6 wk, SCI+Dex, n=10
Protocol: Grid-walking: The grid-walking test assesses the ability of a mouse to place its paws on the rungs of a grid accurately during spontaneous exploration. An elevated metal rectangle grid (12×36 inch2 with each grid cell 0.5×0.5 inch2) and 16 inches above a table top was used for the hindlimb drop error test. Each mouse was placed in the center of the grid for 3 min. A one-foot drop error was counted when the hindlimb paw was entirely dropping through the grid with all toes and heel below the grid surface. The total number of foot drop errors and total number of steps were recorded by video. Two observers who were blinded to the experiment analyzed the video and counted the steps. The grid-walking test was performed on the day before surgery and on days 21 and 35 post-SCI. Only those mice with consistent plantar stepping (BMS≥5) were tested on the grid.

Cc1cccc([C@H](C)c2cnc[nH]2)c1C [Dex, dexmedetomidine hydrochloride]
intensity of GFAP-positive signal compared to none-treatment SCI mice (GFAP): decreased significantly | hypothermia induction ([1]; Dex 1 μg/kg IP, none-injury mice): failed to induce hypothermia | hypothermia induction ([1]; Dex 10 μg/kg IP, none-injury mice): failed to induce hypothermia | duration of hypothermia ([1]; Dex 50 μg/kg IP, ambient temperature 24.5° C.): less than one hour | hypothermia body temperature ([1]; Dex 50 μg/kg IP, ambient temperature 24.5° C., mild hypothermia): 34-35 °C | duration of hypothermia ([1]; Dex 50 μg/kg one hour post Avertin (2.5%), none-injury mice): 2 h | duration of hypothermia ([1]; Dex 100 μg/kg IP alone, ambient temperature 24.5° C., hydrochloride): 2 h and 3 h | hypothermia body temperature ([1]; Dex 100 μg/kg IP, mild to moderate hypothermia): 30-32 °C | duration of hypothermia ([1]; Dex 100 μg/kg one hour post Avertin (2.5%), none-injury mice): 6 h | death of treated mice ([1]; Dex 200 μg/kg IP, due to urethral obstructions): about 40% | hypothermia body temperature ([1]; Dex 200 μg/kg IP, more severe hypothermia): lower than 28 °C | induced hypothermia body temperature ([1]; in one hour at ambient temperatures 24-25° C., modest hypothermia): 30-32 °C | duration of moderate hypothermia [2]: 16 h | BMS increase rate vs. SCI [3]: 56% | BMS score ([3]; SCI+Dex, n=10): 7.13±0.48 | voiding efficiency (mouse with a SCI; n=5, p<0.05 vs. SCI group): 15.9±6.6% | bladder capacity (mouse with a SCI; p<0.05 vs. SCI group): 0.56 ± 0.31 mL | synchronization of bladder CMG and external urethral sphincter EMG signals (mouse with a SCI; vs. SCI): enhanced the synchronization | Grid walk foot fall [4]: 12.9±3.6
